# Calls of active or inactive are those of the source. The rule behind the calls is not given here.
# Columns and labels:
# Glutamate NMDA receptor = assay: Inhibition of [3H]-TCP binding to NMDA receptors on rat brain membranes.; type: cell membranes, Membrane
# Mus musculus [1] = assay: Compound was tested up to a dose of 80mg/Kg, ip; did not produce effects such as body rolling, ataxia and hyperlocomotion; type: functional, organism-based
# Rattus norvegicus = assay: Tested […] for the NMDA-induced cytotoxicity at a concentration of 100 uM in rat cortical cell cultures; type: functional
# Gerbillinae [2] = assay: Tested for the percent reduction in CA1 damage of the hippocampus (gerbil ischemia-induced cell death) after 60 mg/kg intraperitoneal administration,45 min pre and 5 min post ischemia event; type: functional
# Mus musculus [3] = assay: Tested in vivo for the antagonistic activity after 0.4 ug/mouse of NMDA intracerebral administration in mice; type: functional; conditions: central
# Mus musculus [4] = assay: Compound was tested at a dose of 0.5-1mg/Kg, ip; produced effects such as body rolling, ataxia and hyperlocomotion; type: functional, organism-based
# Gerbillinae [5] = assay: Tested for the percent protection from CA1 damage of the hippocampus (gerbil ischemia-induced cell death) after 1 mg/kg intraperitoneal administration, 45 min pre and 5 min post ischemia event; type: functional
# Mus musculus [6] = assay: Compound was tested at a dose of 20-40mg/Kg, ip; produced effects such as body rolling, ataxia and hyperlocomotion; type: functional, organism-based
structure (smiles),measurement,setting,value
c1ccc2c(c1)CCCC21NCc2ccccc21 (centres undefined),IC50,Glutamate NMDA receptor,890 nM
CCCN1Cc2ccccc2C12CCCc1ccccc12 (centres undefined),IC50,Glutamate NMDA receptor,1600 nM
CN1Cc2ccc(O)cc2C12CCCc1ccccc12 (centres undefined),IC50,Glutamate NMDA receptor,200 nM
CN1Cc2ccccc2C12CCCc1sccc12.O=C(O)C(=O)O (centres undefined),Activity,Mus musculus [1],inactive
same,Protection,Rattus norvegicus,68%
same,Reduction,Gerbillinae [2],84%
same,IC50,Glutamate NMDA receptor,490 nM
same,ED50,Mus musculus [3],32 mg/kg
COc1ccc2c(c1)C1(CCCc3ccccc31)N(C)C2 (centres undefined),IC50,Glutamate NMDA receptor,790 nM
c1ccc2c(c1)CCCCC21NCc2ccccc21 (centres undefined),IC50,Glutamate NMDA receptor,1700 nM
CCCN1Cc2ccccc2C12CCCc1sccc12 (centres undefined),IC50,Glutamate NMDA receptor,1500 nM
Oc1ccc2c(c1)C1(CCCc3ccccc31)NC2 (centres undefined),IC50,Glutamate NMDA receptor,240 nM
COc1cccc2c1CCC21NCc2ccccc21 (centres undefined),IC50,Glutamate NMDA receptor,5000 nM
CN1Cc2ccccc2C12CCCc1ccccc12 (centres undefined),IC50,Glutamate NMDA receptor,1500 nM
CCCN1Cc2ccccc2C12CCCCc1ccccc12 (centres undefined),IC50,Glutamate NMDA receptor,17000 nM
COc1ccc2c(c1)C1(CCCCc3ccccc31)NC2 (centres undefined),IC50,Glutamate NMDA receptor,4800 nM
CN1Cc2ccc(O)cc2C12CCCCc1ccccc12 (centres undefined),IC50,Glutamate NMDA receptor,160 nM
CCCN1Cc2ccccc2C12CCc1ccccc12 (centres undefined),IC50,Glutamate NMDA receptor,440 nM
Oc1cccc2c1CCC21NCc2ccccc21 (centres undefined),IC50,Glutamate NMDA receptor,730 nM
C[C@]12N[C@H](Cc3ccccc31)c1ccccc12.Cl [DIZOCILPINE HYDROCHLORIDE],Activity,Mus musculus [4],Active
same,Protection,Gerbillinae [5],42%
CCCN1Cc2ccc(OC)cc2C12CCCCc1ccccc12 (centres undefined),IC50,Glutamate NMDA receptor,17000 nM
COc1ccc2c(c1)C1(CCCCc3ccccc31)N(C)C2 (centres undefined),IC50,Glutamate NMDA receptor,2700 nM
CN1Cc2ccccc2C12CCc1ccccc12 (centres undefined),IC50,Glutamate NMDA receptor,65 nM
c1ccc2c(c1)CNC21CCCc2sccc21 (centres undefined),IC50,Glutamate NMDA receptor,600 nM
c1ccc2c(c1)CCC21NCc2ccccc21 (centres undefined),Activity,Mus musculus [6],Active
same,IC50,Glutamate NMDA receptor,980 nM
CN1Cc2ccccc2C12CCCCc1ccccc12 (centres undefined),IC50,Glutamate NMDA receptor,1700 nM
COc1ccc2c(c1)C1(CCCc3ccccc31)NC2 (centres undefined),IC50,Glutamate NMDA receptor,4000 nM
